According to patent US11613533B2, “Compounds useful for inhibiting RET kinase” (Eli Lilly and Company, priority 2020, dated 2023):
Substitutions are numbered along the chain they refer to.

What was measured:
[1] = target: T1, KIF5B-RET mutant form G810S in HEK293 cells (Homo sapiens, UniProt P07949, G810S); assay: RET cell assay (In-Cell Western, phospho-RET Y1062), G810S; format: cell-based; conditions: HEK293, doxycycline-induced KIF5B-RET G810S, 1 hr compound treatment; read-out: EC50, inhibition of intracellular autophosphorylation of RET at tyrosine 1062, G810S cells
T1 construct: expressed in transfected cells; host or cells: HEK293; the other entry of the earlier key: KIF5B (P33176, Kinesin-1 heavy chain)
T1 sequence (P07949 713-1063 G810S limits assumed): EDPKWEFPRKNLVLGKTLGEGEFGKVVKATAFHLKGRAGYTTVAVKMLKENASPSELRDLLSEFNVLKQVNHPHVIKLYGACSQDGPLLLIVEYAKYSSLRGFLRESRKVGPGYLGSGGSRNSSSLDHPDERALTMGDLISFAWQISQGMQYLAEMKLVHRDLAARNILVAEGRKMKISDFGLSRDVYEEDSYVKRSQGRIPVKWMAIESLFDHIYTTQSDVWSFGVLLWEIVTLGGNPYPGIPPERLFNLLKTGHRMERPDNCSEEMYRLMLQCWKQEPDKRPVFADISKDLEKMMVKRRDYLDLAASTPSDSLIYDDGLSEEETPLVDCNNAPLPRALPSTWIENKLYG
Protocol: (§1) Compounds of formulas (I), (II), and (III) are screened for their ability to inhibit the intracellular autophosphorylation of RET at tyrosine 1062 as detected by In-Cell Western. HEK293 cells containing a doxycycline-inducible plasmid for inducible expression of KIF5B-RET WT and RET mutant forms V804M and G810S are seeded at 25,000 cells/well into black poly-D-lysine pre-coated 384-well plates (Corning, Catalog No. 356697). Expression of KIF5B-RET is induced with doxycycline at 1 μg/mL and cells are incubated at 37° C. overnight. Compounds are prepared in a threefold serial dilution in DMSO before further diluting 1:100 in media prior to the addition to the cells (0.1% final DMSO concentration). Compound treatment is performed for 1 hr at 37° C. followed by fixation of cells with 4% formaldehyde for 20 min at RT and cell permeabilisation with ice-cold MeOH for 10 min at RT. Cells are incubated with Intercept® blocking buffer (Li—COR, Catalogue No. 927-70010) for 1 hr at RT. Incubation with primary antibodies against human phospho-RET (Y1062) (R&D, Catalogue No. AF5009, 1/250 dilution) and human glyceraldehyde-3-phosphate dehydrogenase (clone 6C5, Merck, Catalog No. MAB374, 1/1000 dilution) are performed overnight at 4° C. Incubation with secondary antibodies IRDye® 800CW goat anti-rabbit IgG (Li—COR, Catalogue No. 926-32211, 1/1000 dilution) and IRDye® 680CW goat anti-mouse IgG (Li—COR, Catalogue No. 926-68070, 1/1000 dilution) are performed for 1 hr at RT. All antibody dilutions are done in Intercept® blocking buffer containing 0.05% Tween20. After washing cells with PBS-T (Cell Signaling technology, Catalogue No. 9809), the images are acquired on a Li—COR Odyssey LCx at 700 and 800 nm. Percent of DMSO control is calculated with 100% signal referring to control conditions containing no compound (0.4% DMSO only) and 0% signal represented by conditions containing control compound. The % of DMSO control values are fit to a 4 parameter logistic curve, and the determined EC50 value is defined as the estimated concentration of inhibitor at the inflexion point of the fitted curve.

[2] = target: T2, KIF5B-RET WT in HEK293 cells (Homo sapiens, UniProt P07949); assay: RET cell assay (In-Cell Western, phospho-RET Y1062), wildtype; format: cell-based; conditions: HEK293, doxycycline-induced KIF5B-RET WT, 1 hr compound treatment; read-out: EC50, inhibition of intracellular autophosphorylation of RET at tyrosine 1062, wildtype cells
T2 construct: expressed in transfected cells; host or cells: HEK293; the other entry of the earlier key: KIF5B (P33176, Kinesin-1 heavy chain)
T2 sequence (P07949 713-1063 limits assumed): T1 sequence (P07949 713-1063 G810S limits assumed) with S98G
Protocol: as §1

[3] = target: T3, KIF5B-RET mutant form V804M in HEK293 cells (Homo sapiens, UniProt P07949, V804M); assay: RET cell assay (In-Cell Western, phospho-RET Y1062), V804M; format: cell-based; conditions: HEK293, doxycycline-induced KIF5B-RET V804M, 1 hr compound treatment; read-out: EC50, inhibition of intracellular autophosphorylation of RET at tyrosine 1062, V804M cells
T3 construct: expressed in transfected cells; host or cells: HEK293; the other entry of the earlier key: KIF5B (P33176, Kinesin-1 heavy chain)
T3 sequence (P07949 713-1063 V804M limits assumed): T1 sequence (P07949 713-1063 G810S limits assumed) with V92M, S98G
Protocol: as §1

| Compound | melting point [°C] | EC50 [1] [nM] | EC50 [2] [nM] | EC50 [3] [nM] |
| --- | --- | --- | --- | --- |
| CC(C(=O)Nc1cc(CC(C)(C)C)no1)c1ccc(-c2nn(C(C)C)c(N)c2C(N)=O)cc1 (single isomer, unassigned; isomer 2) [Example 2, 5-Amino-3-[4-(1-[[3-(2,2-dimethylpropyl)-1,2-oxazol-5-yl]carbamoyl]ethyl)phenyl]-1-isopropylpyrazole-4-carboxamide, Isomer 2] | 128 |  |  |  |
| CC(C(=O)Nc1cc(C(C)(C)C(F)(F)F)on1)c1ccc(-c2nn(C3(C)CC3)c(N)c2C(N)=O)nc1 (single isomer, unassigned; isomer 1) [Example 31, 5-Amino-1-(1-methylcyclopropyl)-3-[5-[(1-[[5-[1,1,1-trifluoro-2-methylpropan-2-yl)-1,2-oxazol-3-yl]carbamoyl]ethyl]pyridin-2-yl]pyrazole-4-carboxamide, Isomer 1] |  | < 100 | < 100 | < 100 |
| CC(C(=O)Nc1cc(CC(C)(C)C)no1)c1ccc(-c2nn(C3(C)CC3)c(N)c2C(N)=O)nc1 (single isomer, unassigned; isomer 1) [Example 33, 5-Amino-3-[5-[1-[[3-(2,2-dimethylpropyl)-1,2-oxazol-5-yl]carbamoyl]ethyl]pyridin-2-yl]-1-(1-methylcyclopropyl)pyrazole-4-carboxamide, Isomer 1] |  | < 100 | < 100 | < 100 |
